Earlier results on one compound are cited in US20090196894A1, “Self Tanning Composition” (priority 2006, published 2009).

For this data set the following is noted: over the entire pH range, among the investigated hydroxyflavones.

As for `O=c1c(O)c(-c2ccc(O)c(O)c2)oc2cc(O)cc(O)c12` [quercetin, 3,3′,4′,5,7-pentahydrooxyflavone], the antioxidative effect result is given as “highest activity”.
